# Reference: the supplement of paper PMC10307832
# Legend:
# Test in all cases: relative viability (nuclei count vs DMSO), 5 days (fraction); higher = more cells survive
# [1] = compound: Cn1cncc1[C@@](N)(c1ccc(Cl)cc1)c1ccc2c(c1)c(-c1cccc(Cl)c1)cc(=O)n2C [Tipifarnib] + COc1cc2c(Oc3ccc(NC(=O)C4(C(=O)Nc5ccc(F)cc5)CC4)cc3F)ccnc2cc1OCCCN1CCOCC1 [Foretinib] (partner 0.25 µM)
# Method in brief: (§1)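 The day after seeding in 1536-well plates, lung cancer cell lines were treated by pin tool with a single drug, or with a fixed anchor-drug dose together with five library-drug doses (not always all listed) in √10 steps. After 5 days, a combined fix-and-stain solution (final 0.05% Triton X-100, 1% formaldehyde, 1 ug/ml Hoechst) was added. Nuclei counted on 4× images gave relative viability as treated counts over vehicle counts, reported as the median of duplicate plates.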
# [2] = compound: Cn1cncc1[C@@](N)(c1ccc(Cl)cc1)c1ccc2c(c1)c(-c1cccc(Cl)c1)cc(=O)n2C [Tipifarnib] + CS(=O)(=O)N1CCN(Cc2cc3nc(-c4cccc5[nH]ncc45)nc(N4CCOCC4)c3s2)CC1 [Pictilisib] (partner 1 µM)
# Method in brief: as §1
# [3] = compound: Cn1cncc1[C@@](N)(c1ccc(Cl)cc1)c1ccc2c(c1)c(-c1cccc(Cl)c1)cc(=O)n2C [Tipifarnib] + NC(=O)Nc1cc(-c2cccc(F)c2)sc1C(=O)N[C@H]1CCCNC1 [AZD7762] (partner 0.2 µM)
# Method in brief: as §1
# [4] = compound: Cn1cncc1[C@@](N)(c1ccc(Cl)cc1)c1ccc2c(c1)c(-c1cccc(Cl)c1)cc(=O)n2C [Tipifarnib] + O=C(CCCCCCC(=O)Nc1ccccc1)NO [Vorinostat] (partner 1 µM)
# Method in brief: as §1
Cell Line,relative viability ([1]; first compound 0.01 µM),relative viability ([1]; first compound 0.03162 µM),relative viability ([1]; first compound 0.1 µM),relative viability ([1]; first compound 0.3162 µM),relative viability ([1]; first compound 1 µM),relative viability ([2]; first compound 0.01 µM),relative viability ([2]; first compound 0.03162 µM),relative viability ([2]; first compound 0.1 µM),relative viability ([2]; first compound 0.3162 µM),relative viability ([2]; first compound 1 µM),relative viability ([3]; first compound 0.01 µM),relative viability ([3]; first compound 0.03162 µM),relative viability ([3]; first compound 0.1 µM),relative viability ([3]; first compound 0.3162 µM),relative viability ([3]; first compound 1 µM),relative viability ([4]; first compound 0.01 µM),relative viability ([4]; first compound 0.03162 µM),relative viability ([4]; first compound 0.1 µM),relative viability ([4]; first compound 0.3162 µM),relative viability ([4]; first compound 1 µM)
NCI-H1975,0.936,0.967,0.939,0.604,0.568,0.347,0.293,0.255,0.228,0.259,0.89,0.9,0.688,0.623,0.616,0.639,0.682,0.588,0.485,0.491
NCI-H1437,1.32,1.29,1.38,0.955,1.29,0.457,0.466,0.45,0.343,0.212,1.12,1.14,1.1,1.06,1.11,0.837,0.796,0.747,0.646,0.601
NCI-H1651,0.833,0.79,0.85,0.717,0.831,0.632,0.566,0.562,0.512,0.319,0.536,0.467,0.524,0.44,0.363,0.545,0.54,0.537,0.507,0.335
LCLC-103H,0.865,0.869,0.59,0.548,0.418,0.566,0.606,0.617,0.491,0.469,0.784,0.76,0.735,0.713,0.679,0.676,0.707,0.68,0.533,0.611
NCI-H1666,0.923,0.888,0.866,0.873,0.748,0.464,0.393,0.419,0.332,0.367,0.892,0.807,0.794,0.661,0.554,1.05,0.874,1.02,0.883,0.878
NCI-H1734,0.902,0.832,0.729,0.458,0.487,0.486,0.356,0.38,0.331,0.346,0.537,0.46,0.403,0.352,0.257,0.791,0.553,0.534,0.368,0.364
EPLC-272H,0.68,0.631,0.569,0.443,0.257,0.339,0.265,0.392,0.283,0.186,0.313,0.263,0.245,0.292,0.118,0.4,0.457,0.371,0.233,0.139
BEN,0.609,0.686,0.529,0.484,0.379,0.543,0.587,0.543,0.472,0.417,0.738,0.659,0.629,0.663,0.528,0.597,0.488,0.538,0.464,0.422
